These results are taken from ChEMBL document CHEMBL5223139, “Synthesis of 1-(5-(4-chlorophenyl)-1-(2,4-dichlorophenyl)-4-methyl-1H-pyrazol-3-yl)-2-morpholinoethane-1,2-dione analogues and their inhibitory activities with reduced cytotoxicity in lipopolysaccharide-induced BV2 cells” (Bioorg Med Chem Lett, 2023).

The source made the active and inactive calls. The rule behind the calls is not given here. A value given as a limit tells only on which side of the number the result lay.

Series [1] can be described thus: Cytotoxicity against mouse BV-2 cells assessed as cell viability at 5 uM incubated for 24 hrs by MTT assay relative to control. It is filed as toxicity, cell-based. The settings on record: read-out: Activity. For orientation: Formazan colour is commonly taken as a measure of viable cells.
Series [2] is described as follows: Cytotoxicity against mouse BV-2 cells assessed as cell viability at 10 uM incubated for 24 hrs by MTT assay relative to control. It is filed as toxicity, cell-based. The settings on record: read-out: Activity.
Series [3] is described as follows: Inhibition of LPS-induced NO production in mouse BV-2 cells at 10 uM incubated for 24 hrs by Griess reagent based method relative to control. It is filed as functional. In general terms: Nitrite, measured by Griess reagent, commonly stands in for NO production.
Series [4] in a line: Inhibition of LPS-induced NO production in mouse BV-2 cells at 5 uM incubated for 24 hrs by Griess reagent based method relative to control. It is filed as functional.
A short description of series [5]: Inhibition of LPS-induced NO production in mouse BV-2 cells incubated for 24 hrs by Griess reagent based method. It is filed as functional, cell-based. Particulars: BV-2, 24 h.
Series [6] relates to BV-2. Kind of series: Antiinflammatory activity in LPS-induced mouse BV-2 cells assessed as reduction in IL-6 mRNA expression pretreated for 1 hr followed by LPS stimulation and measured after 6 hrs by RT-PCR analysis. It is filed as functional, cell-based. The settings on record: dose 5-20 µM, time 7.0 hrs.
The test system of series [7] is BV-2. The series is described as follows: Antiinflammatory activity in LPS-induced mouse BV-2 cells assessed as reduction in COX-2 mRNA expression pretreated for 1 hr followed by LPS stimulation and measured after 6 hrs by RT-PCR analysis. It is filed as functional, cell-based. The settings on record: dose 5-20 µM, time 7.0 hrs.
The subject of series [8] is BV-2. Kind of series: Antiinflammatory activity in LPS-induced mouse BV-2 cells assessed as reduction in TNF-alpha mRNA expression pretreated for 1 hr followed by LPS stimulation and measured after 6 hrs by RT-PCR analysis. It is filed as functional, cell-based. The settings on record: dose 5-20 µM, time 7.0 hrs.
The target of series [9] is c-Jun N-terminal kinase (Mus musculus) (UniProt Q91Y86+Q9WTU6+Q61831). Kind of series: Inhibition of LPS-induced JNK phosphorylation in mouse BV-2 cells at 5 to 20 uM pretreated for 30 mins followed by LPS stimulation by Western blot analysis. It is filed as cell-based. The settings on record: dose 5-20 µM. In general terms: In western blotting, separated proteins are transferred to a membrane and probed.
Sequence of c-Jun N-terminal kinase (Mus musculus) (Q61831 whole entry, looked up): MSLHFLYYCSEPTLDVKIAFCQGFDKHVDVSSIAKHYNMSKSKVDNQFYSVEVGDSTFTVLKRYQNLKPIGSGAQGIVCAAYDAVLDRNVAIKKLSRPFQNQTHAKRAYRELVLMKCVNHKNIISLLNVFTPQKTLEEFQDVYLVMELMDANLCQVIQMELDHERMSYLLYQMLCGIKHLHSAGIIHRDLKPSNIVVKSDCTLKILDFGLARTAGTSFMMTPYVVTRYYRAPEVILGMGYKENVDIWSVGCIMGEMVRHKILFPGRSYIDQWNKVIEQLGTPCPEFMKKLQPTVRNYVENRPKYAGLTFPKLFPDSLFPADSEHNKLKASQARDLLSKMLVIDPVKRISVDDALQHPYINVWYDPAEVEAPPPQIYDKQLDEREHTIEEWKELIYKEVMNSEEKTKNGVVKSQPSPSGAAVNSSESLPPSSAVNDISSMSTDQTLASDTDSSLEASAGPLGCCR
Sequence of c-Jun N-terminal kinase (Mus musculus) (Q91Y86 whole entry, looked up): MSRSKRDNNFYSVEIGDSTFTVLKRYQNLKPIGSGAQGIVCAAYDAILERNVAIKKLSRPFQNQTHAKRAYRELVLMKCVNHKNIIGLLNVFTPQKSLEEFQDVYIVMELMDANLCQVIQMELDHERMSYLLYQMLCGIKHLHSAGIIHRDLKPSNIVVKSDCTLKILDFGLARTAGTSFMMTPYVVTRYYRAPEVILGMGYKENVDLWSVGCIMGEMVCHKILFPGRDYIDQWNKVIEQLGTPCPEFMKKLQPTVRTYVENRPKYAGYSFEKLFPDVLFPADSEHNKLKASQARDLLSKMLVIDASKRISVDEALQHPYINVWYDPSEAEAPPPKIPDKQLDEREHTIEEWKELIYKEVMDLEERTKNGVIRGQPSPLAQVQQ
Sequence of c-Jun N-terminal kinase (Mus musculus) (Q9WTU6 whole entry, looked up): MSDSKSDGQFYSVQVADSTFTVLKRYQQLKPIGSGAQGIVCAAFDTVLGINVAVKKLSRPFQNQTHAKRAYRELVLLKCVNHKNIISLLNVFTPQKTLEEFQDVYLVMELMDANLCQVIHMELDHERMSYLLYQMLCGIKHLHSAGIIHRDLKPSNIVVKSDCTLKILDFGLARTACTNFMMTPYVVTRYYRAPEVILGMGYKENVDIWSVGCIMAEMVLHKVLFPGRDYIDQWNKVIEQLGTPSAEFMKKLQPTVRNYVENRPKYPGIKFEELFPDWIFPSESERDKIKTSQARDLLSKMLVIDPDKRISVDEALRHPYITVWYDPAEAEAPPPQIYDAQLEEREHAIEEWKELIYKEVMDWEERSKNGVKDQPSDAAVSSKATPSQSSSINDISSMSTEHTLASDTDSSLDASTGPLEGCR

Series [10] relates to BV-2. The series is described as follows: Inhibition of NF-kappaB activation in LPS-stimulated mouse BV-2 cells assessed as reduction in phosphorylated p65 level pretreated for 30 mins followed by LPS stimulation by Western blot analysis. The settings on record: dose 5-20 µM. It is filed as cell-based.
For series [11], the target named is MAP kinase p38 (Mus musculus) (UniProt P47811+O08911+Q9WUI1+Q9Z1B7). Kind of series: Inhibition of LPS-induced p38 phosphorylation in mouse BV-2 cells at 5 to 20 uM pretreated for 30 mins followed by LPS stimulation by Western blot analysis. It is filed as cell-based. Particulars: dose 5-20 µM.
In series [12] the test system is BV-2. The series is described as follows: Antiinflammatory activity in LPS-induced mouse BV-2 cells assessed as reduction in IL-1beta mRNA expression pretreated for 1 hr followed by LPS stimulation and measured after 6 hrs by RT-PCR analysis. It is filed as functional, cell-based. The settings on record: dose 5-20 µM, time 7.0 hrs.
In series [13] the test system is BV-2. Kind of series: Inhibition of NF-kappaB activation in LPS-stimulated mouse BV-2 cells assessed as reduction in phosphorylated IkappaB-alpha level pretreated for 30 mins followed by LPS stimulation by Western blot analysis. It is filed as cell-based. Particulars: dose 5-20 µM.
Series [14] deals with BV-2. The series is described as follows: Antiinflammatory activity in LPS-induced mouse BV-2 cells assessed as reduction in iNOS protein expression pretreated for 1 hr followed by LPS stimulation and measured after 18 hrs by Western blot analysis. It is filed as functional, cell-based. Particulars: dose 5-20 µM, time 19.0 hrs.
Series [15] has as its system BV-2. Kind of series: Antiinflammatory activity in LPS-induced mouse BV-2 cells assessed as reduction in COX-2 protein expression pretreated for 1 hr followed by LPS stimulation and measured after 18 hrs by Western blot analysis. It is filed as functional, cell-based. The settings on record: dose 5-20 µM, time 19.0 hrs.
Series [16] relates to BV-2. Kind of series: Inhibition of LPS-induced ERK phosphorylation in mouse BV-2 cells pretreated for 30 mins followed by LPS stimulation by Western blot analysis. Particulars: dose 5-20 µM. It is filed as cell-based.
Series [17] deals with BV-2. The series is described as follows: Antiinflammatory activity in LPS-induced mouse BV-2 cells assessed as reduction in iNOS mRNA expression pretreated for 1 hr followed by LPS stimulation and measured after 6 hrs by RT-PCR analysis. The settings on record: dose 5-20 µM, time 7.0 hrs. It is filed as functional, cell-based.

One may read the inhibition as the drop in the measured response relative to a control, in per cent. For the compound `Cc1c(C(=O)C(=O)N2CCN(C)CC2)nn(-c2ccc(Cl)cc2Cl)c1-c1ccc(Cl)cc1`, the viability at 24 h, 5 µM in [1] was determined as 95.2%. Besides, in series [2], the viability at 24 h, 10 µM was at most 80%. Moreover, 10 µM produced 48% inhibition in series [3]. In [4], this compound displayed an inhibition at 5 µM of 38.1%.
As usually defined, the IC50 is the concentration that inhibits the measured activity by half. A higher IC50 goes with a need for much substance. `Cc1c(C(=O)NN2CCCCC2)nn(-c2ccc(Cl)cc2Cl)c1-c1ccc(Cl)cc1` [RIMONABANT]: the viability at 24 h, 5 µM in [1] was found to be 99.3%. In series [5], this compound gave an IC50 of 16.2 µM. Besides, in series [2], the viability at 24 h, 10 µM stood at 91.2%. In series [3], this compound showed an inhibition at 10 µM of 43.9%. In [4], this compound gave an inhibition at 5 µM of 21.2%.
The corresponding values for `Cc1c(C(=O)C(=O)N2CCSCC2)nn(-c2ccc(Cl)cc2Cl)c1-c1ccc(Cl)cc1` are 99.6%, 5.28 µM, 96.5%, 58.3% and 13.5%.
On to `Cc1c(C(=O)C(=O)NCC(C)C)nn(-c2ccc(Cl)cc2Cl)c1-c1ccc(Cl)cc1`, for which, in series [1], the viability at 24 h, 5 µM was under 80%.
Turning to `Cc1c(C(=O)C(=O)NC2CCCCC2)nn(-c2ccc(Cl)cc2Cl)c1-c1ccc(Cl)cc1`, the viability at 24 h, 5 µM in series [1] was 96.8%. Moreover, the viability at 24 h, 10 µM in series [2] was under 80%. For the same compound, the inhibition at 5 µM in [4] was 87.4%.
`Cc1c(C(=O)C(=O)N2CCOCC2)nn(-c2ccc(Cl)cc2Cl)c1-c1ccc(Cl)cc1`: the Activity result in the series on BV-2 [6], in the series on BV-2 [7], with BV-2 [8], in the series with BV-2 [12], with BV-2 [14] and in the series with BV-2 [15] was “Dose-Dependent Effect” throughout. In the series on BV-2 [17], the Activity entry was “Dose-Dependent Effect”. The viability at 24 h, 5 µM in [1] was found to be 98%. The inhibition entry in [9] and in series [11] was “inactive” throughout. In series [5], this compound showed an IC50 of 4.71 µM. In addition, the inhibition result in the series on BV-2 [10], with BV-2 [13] and in the series with BV-2 [16] was “Dose-Dependent Effect” throughout. For the same compound, in [2], the viability at 24 h, 10 µM was 98.7%. The compound also yielded an inhibition at 10 µM in [3] of 49.7%. Moreover, 5 µM produced 26.1% inhibition in series [4].
In the case of `Cc1c(C(=O)C(=O)NC(C)(C)C)nn(-c2ccc(Cl)cc2Cl)c1-c1ccc(Cl)cc1`, the viability at 24 h, 5 µM in series [1] is under 80%.
For the compound `Cc1c(C(=O)C(=O)NC2CCCCCC2)nn(-c2ccc(Cl)cc2Cl)c1-c1ccc(Cl)cc1`, the viability at 24 h, 5 µM in series [1] is under 80%.
On to `Cc1c(C(=O)C(=O)NN2CCCCC2)nn(-c2ccc(Cl)cc2Cl)c1-c1ccc(Cl)cc1`, for which the viability at 24 h, 5 µM in series [1] was under 80%.
The same measure, in the same setting: the figure for `CCCCCCCCNC(=O)C(=O)c1nn(-c2ccc(Cl)cc2Cl)c(-c2ccc(Cl)cc2)c1C` is under 80%.
The same measure, in the same setting: the figure for `Cc1c(C(=O)C(=O)N2CCCC2)nn(-c2ccc(Cl)cc2Cl)c1-c1ccc(Cl)cc1` is under 80%; for `Cc1c(C(=O)C(=O)N2CCNCC2)nn(-c2ccc(Cl)cc2Cl)c1-c1ccc(Cl)cc1` it is under 80%; for `Cc1c(C(=O)C(=O)N2CCC(O)CC2)nn(-c2ccc(Cl)cc2Cl)c1-c1ccc(Cl)cc1` it is under 80%.
Same read-out and setting: to `Cc1c(C(=O)C(=O)NC(C)C)nn(-c2ccc(Cl)cc2Cl)c1-c1ccc(Cl)cc1` belongs under 80%; to `Cc1c(C(=O)C(=O)NCCCO)nn(-c2ccc(Cl)cc2Cl)c1-c1ccc(Cl)cc1`, under 80%.
For `Cc1c(C(=O)C(=O)NC23CC4CC(CC(C4)C2)C3)nn(-c2ccc(Cl)cc2Cl)c1-c1ccc(Cl)cc1`, in [1], the viability at 24 h, 5 µM is under 80%.
Still for that read-out and setting: the figure for `Cc1c(C(=O)C(=O)N2CCCCCC2)nn(-c2ccc(Cl)cc2Cl)c1-c1ccc(Cl)cc1` is under 80%; for `CCCCCCCNC(=O)C(=O)c1nn(-c2ccc(Cl)cc2Cl)c(-c2ccc(Cl)cc2)c1C` it is under 80%; for `Cc1c(C(=O)C(=O)NC2CCCC2)nn(-c2ccc(Cl)cc2Cl)c1-c1ccc(Cl)cc1` it is under 80%.
On to `Cc1c(C(=O)C(=O)NCCO)nn(-c2ccc(Cl)cc2Cl)c1-c1ccc(Cl)cc1`, for which the viability at 24 h, 5 µM in series [1] turned out to be 94.2%. For the same compound, the IC50 in series [5] was determined as 5.08 µM. Further, the viability at 24 h, 10 µM in series [2] stood at 93.6%. This compound returned an inhibition at 10 µM in series [3] of 73.4%. In series [4], this compound returned an inhibition at 5 µM of 62.8%.
Turning to `CCCCCNC(=O)C(=O)c1nn(-c2ccc(Cl)cc2Cl)c(-c2ccc(Cl)cc2)c1C`, the viability at 24 h, 5 µM in [1] was under 80%.
On the same count and under the same terms, the figure for `CCCCNC(=O)C(=O)c1nn(-c2ccc(Cl)cc2Cl)c(-c2ccc(Cl)cc2)c1C` is under 80%.
In the case of `Cc1c(C(=O)C(=O)N2CCCCC2)nn(-c2ccc(Cl)cc2Cl)c1-c1ccc(Cl)cc1`, the viability at 24 h, 5 µM in series [1] was found to be 98.2%. In addition, half-maximal inhibition in series [5] (IC50) required 5.82 µM. Also, in [2], the viability at 24 h, 10 µM is 80%. The same compound showed an inhibition at 10 µM in series [3] of 50.1%. Besides, at 5 µM the inhibition in [4] was 20.3%.
With `Cc1c(C(=O)C(=O)NC2CCC(O)CC2)nn(-c2ccc(Cl)cc2Cl)c1-c1ccc(Cl)cc1` (stereo unspecified), in series [1], the viability at 24 h, 5 µM was under 80%.
Same read-out and setting: to `CCCNC(=O)C(=O)c1nn(-c2ccc(Cl)cc2Cl)c(-c2ccc(Cl)cc2)c1C` belongs under 80%; to `CCCCCCNC(=O)C(=O)c1nn(-c2ccc(Cl)cc2Cl)c(-c2ccc(Cl)cc2)c1C`, under 80%.
Take `CCNC(=O)C(=O)c1nn(-c2ccc(Cl)cc2Cl)c(-c2ccc(Cl)cc2)c1C`: the viability at 24 h, 5 µM in series [1] came to 86.4%. Also, in [2], the viability at 24 h, 10 µM was under 80%. The compound further yielded an inhibition at 5 µM in [4] of 63.7%.
